Results reported in US12037344B2, “NLRP3 modulators” (INNATE TUMOR IMMUNITY, INC., priority 2018, dated 2024).
Read-outs that look alike come from different tables or passages of the source.

How the values were obtained:
THP-1 cells = test: Measurement of IL-1β production, hTRF protocol (second alternative procedure), THP-1 cells; type: cell-based, human; conditions: Homo sapiens
Experimental: Measurement of IL-1β Production—hTRF Protocol (Second Alternative Procedure)
Serial dilutions of compounds in DMSO were added to low volume 384 well plates at 100 nl/well using an ECHO 550 acoustic dispenser (Labcyte) to achieve final starting concentration of 10 μM in assay.
THP-1 cells in RPMI (Gibco, 11875) media with 10% FBS at a density of 1×10^6 cell/ml in a T175 flask were treated with a final concentration of phorbol 12-myristate 13-acetate (PMA) (Sigma, P1585) of 50 ng/ml overnight at 37° C. at 5% CO2 for differentiation. Cells were harvested the next day after rinsing well with dPBS using 0.5% trypsin. A cell solution was prepared of 1×10^6 cells/ml for 50,000 cells in 50 μl/well in RPMI media with 2% FBS. Cells were plated using a multichannel pipette onto the compound dilutions in Greiner, 384 well, black clear bottom tissue culture treated plates (781090). The plates were incubated in 37° C. incubator at 5% CO2 for 2 hours.
After the 2 hour incubation, the cell plates were spun in the centrifuge for 5 minutes at 1200 rpm. Using the Felix (CyBio), 8 μl of the supernatant was transferred to 384 well, low volume, white proxy plates. (Perkin Elmer, 6008230). A human IL1beta hTRF kit was used to analyze the supernatant (CISBIO, 62HIL1BPEG). The kit instructions were followed for preparing the IL1Beta standard curve and then the antibodies from the kit were diluted 1:40 rather than 1:20 as kit instructed. Once combined, the antibodies were added across the plates, 5 μl/well. The plates were sealed and incubated at 4° C. overnight. The plates were then read on the Perkin Elmer EnVision at 665/615 nm using the hTRF laser.

TLR7 = biological target: T1, TLR7 (Homo sapiens, UniProt Q9NYK1); test: In vitro human TLR7 binding reporter assay (HEK-Blue, NF-kB/AP1-inducible SEAP); type: cell-based; conditions: read-out: TLR7 Agonist EC50
T1 construct: human HEK-Blue cells co-expressing a TLR7 or TLR8 gene
T1 sequence (Q9NYK1 27-1049): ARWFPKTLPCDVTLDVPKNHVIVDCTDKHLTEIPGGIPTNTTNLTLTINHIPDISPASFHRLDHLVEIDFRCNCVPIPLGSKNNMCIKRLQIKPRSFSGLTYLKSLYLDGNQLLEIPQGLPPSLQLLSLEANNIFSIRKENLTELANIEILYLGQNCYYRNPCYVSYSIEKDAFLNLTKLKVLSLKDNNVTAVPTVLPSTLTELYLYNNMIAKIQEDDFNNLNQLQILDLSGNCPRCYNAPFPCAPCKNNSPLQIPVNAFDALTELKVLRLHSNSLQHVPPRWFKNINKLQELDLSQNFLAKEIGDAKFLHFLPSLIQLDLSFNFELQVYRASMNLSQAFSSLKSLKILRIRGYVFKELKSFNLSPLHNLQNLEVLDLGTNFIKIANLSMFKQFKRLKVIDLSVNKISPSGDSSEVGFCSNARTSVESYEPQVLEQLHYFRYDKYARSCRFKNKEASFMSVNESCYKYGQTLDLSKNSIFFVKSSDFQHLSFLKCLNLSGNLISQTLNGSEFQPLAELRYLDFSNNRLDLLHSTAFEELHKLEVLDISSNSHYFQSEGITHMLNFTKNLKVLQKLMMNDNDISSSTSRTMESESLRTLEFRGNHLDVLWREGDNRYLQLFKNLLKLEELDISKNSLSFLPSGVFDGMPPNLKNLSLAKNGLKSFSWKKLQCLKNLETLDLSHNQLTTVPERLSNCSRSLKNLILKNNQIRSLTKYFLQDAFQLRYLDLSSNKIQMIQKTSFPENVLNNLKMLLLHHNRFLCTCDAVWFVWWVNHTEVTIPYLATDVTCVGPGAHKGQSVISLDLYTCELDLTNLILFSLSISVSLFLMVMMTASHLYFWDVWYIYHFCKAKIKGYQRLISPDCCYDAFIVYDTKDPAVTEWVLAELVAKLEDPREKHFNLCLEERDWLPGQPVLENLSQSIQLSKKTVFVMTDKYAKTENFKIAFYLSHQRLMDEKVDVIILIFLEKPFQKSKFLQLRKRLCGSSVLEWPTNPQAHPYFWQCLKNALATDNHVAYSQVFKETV
Experimental: (§1) In Vitro Human TLR7 and TLR8 Binding Reporter Assays
(§2) Logarithmically-growing human HEK-Blue cells co-expressing a TLR7 or TLR8 gene and a NF-kB/AP1-inducible SEAP (secreted embryonic alkaline phosphatase; Invivogen, San Diego, CA) reporter gene are added to individual wells of a 384-well plate (15,000 cells per 20 μL per well) and maintained for 24 h at 37° C., 5% CO2. Test compounds or DMSO are distributed to separate wells the next day using acoustic liquid handling technology (100 nL per well) and cells are subsequently incubated for 18 h at 37° C., 5% CO2. Cellular SEAP production is measured using an Envision plate reader instrument thirty minutes after adding freshly-made Quanti-Blue reagent (prepared by following manufacturer instructions; Invivogen, San Diego, CA) to the HEK-Blue TLR Nf-kB-SEAP cell reactions. All EC50 values (half-maximal effective concentration) are determined using proprietary data analysis software. Normalized EC50 value=absolute value determined by setting 100% Ymax using a reference standard RLU (relative light unit) values from cells treated with 50 μM of the reference standard.

TLR8 = biological target: T2, TLR8 (Homo sapiens, UniProt Q9NR97); test: In vitro human TLR8 binding reporter assay (HEK-Blue, NF-kB/AP1-inducible SEAP); type: cell-based; conditions: read-out: TLR8 Agonist EC50
T2 construct: human HEK-Blue cells co-expressing a TLR7 or TLR8 gene
T2 sequence (Q9NR97 27-1041): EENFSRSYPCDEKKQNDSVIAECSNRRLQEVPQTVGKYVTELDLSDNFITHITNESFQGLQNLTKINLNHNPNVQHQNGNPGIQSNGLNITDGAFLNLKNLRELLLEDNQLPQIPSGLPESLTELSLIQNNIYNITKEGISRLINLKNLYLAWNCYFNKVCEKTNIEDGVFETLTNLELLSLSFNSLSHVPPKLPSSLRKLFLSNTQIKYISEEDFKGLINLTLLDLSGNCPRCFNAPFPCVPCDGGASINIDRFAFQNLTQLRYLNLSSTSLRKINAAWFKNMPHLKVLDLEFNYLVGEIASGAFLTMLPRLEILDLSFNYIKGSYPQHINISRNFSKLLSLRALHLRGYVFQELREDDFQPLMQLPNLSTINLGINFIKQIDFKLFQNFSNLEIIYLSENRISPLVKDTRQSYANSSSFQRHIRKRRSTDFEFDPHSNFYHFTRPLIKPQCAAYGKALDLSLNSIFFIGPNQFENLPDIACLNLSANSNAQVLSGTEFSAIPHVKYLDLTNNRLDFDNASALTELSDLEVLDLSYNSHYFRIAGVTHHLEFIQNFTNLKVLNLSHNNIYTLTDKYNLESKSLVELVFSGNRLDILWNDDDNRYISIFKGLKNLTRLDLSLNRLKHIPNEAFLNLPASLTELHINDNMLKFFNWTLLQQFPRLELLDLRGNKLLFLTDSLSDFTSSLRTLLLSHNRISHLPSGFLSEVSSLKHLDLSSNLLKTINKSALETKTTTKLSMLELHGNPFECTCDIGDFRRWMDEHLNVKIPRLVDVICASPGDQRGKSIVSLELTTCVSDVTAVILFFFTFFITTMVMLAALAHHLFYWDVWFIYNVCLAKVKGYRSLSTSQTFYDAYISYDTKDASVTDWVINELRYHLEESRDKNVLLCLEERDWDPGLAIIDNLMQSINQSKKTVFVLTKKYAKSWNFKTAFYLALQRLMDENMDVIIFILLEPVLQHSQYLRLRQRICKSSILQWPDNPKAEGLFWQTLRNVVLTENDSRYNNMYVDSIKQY
Experimental: as §1, §2

[1] = THP-1, IL-1β production, human cells, read-out: NLRP3 hILIB EC50
[2] = THP-1, IL-1β production, human, read-out: NLRP3 hILIB EC50

Row | EC50 (THP-1 cells; [1]) [µM] | EC50 (TLR7; activity range) [µM] | EC50 (TLR8; activity range) [µM] | EC50 (THP-1 cells; [2]) [µM] | EC50 (TLR7; activity range class) [µM] | EC50 (TLR8; activity range class) [µM] | SMILES | EC50 (THP-1 cells; THP-1, read-out: NLRP3 hILIB EC50) [µM]
1 | 23.4 | > 100 | > 100 |  |  |  | CC(Cn1cc2c(N)nc3cc(-c4cc[nH]n4)ccc3c2n1)C(=O)N1CC(O)C1 (stereo not drawn) [Example 613] | 
2 | 2.75 | > 100 | > 100 |  |  |  | CC(C)(CO)NC(=O)Cn1cc2c(n1)c(N)nc1cc(-c3cc[nH]n3)ccc12 [Example 537] | 
3 |  |  |  | 0.2 | > 100 | > 100 | Nc1nc2cc(-c3cc[nH]n3)ccc2c2c1cnn2CC(F)F [Example 225] | 
4 | 0.37 | > 100 | > 100 |  |  |  | Nc1nc2cc(-c3cc[nH]n3)ccc2c2[nH]c(CCNC(=O)c3cnco3)cc12 [Example 500] | 
5 | 8.7 | > 100 | > 100 |  |  |  | CC(C)(Cn1cc2c(N)nc3cc(-c4ccn[nH]4)ccc3c2n1)C(=O)N1CC(O)C1 [Example 597] | 
6 |  |  |  | 2.33 | > 100 | > 100 | CNCCn1cc2c(N)nc3cc(-c4ccn[nH]4)ccc3c2n1 [Example 277] | 
7 |  |  |  | 4.5 | > 100 | > 100 | COC1CN(CCn2cc3c(N)nc4cc(-c5ccn[nH]5)ccc4c3n2)C1 [Example 268] | 
8 |  |  |  | 0.87 | > 100 | > 100 | CC(=O)NCCn1cc2c(N)nc3cc(-c4cc[nH]n4)ccc3c2n1 [Example 290] | 
9 |  |  |  | 2.08 | 20 to 100 | > 100 | CN(C)CCn1cc2c(n1)c(N)nc1cc(-c3cc[nH]n3)ccc12 [Example 21] | 
10 |  |  |  | 0.46 | 20 to 100 | > 100 | Cn1ccnc1C(=O)NCCn1cc2c(n1)c(N)nc1cc(-c3cc[nH]n3)ccc12 [Example 99] | 
11 |  |  |  | 0.13 | 20 to 100 | 20 to 100 | Nc1nc2cc(-c3cc[nH]n3)ccc2c2cn(CCNC(=O)c3csc(Cl)n3)nc12 [Example 88] | 
12 | 0.18 | > 100 | > 100 |  |  |  | Cc1nc(C(=O)NCCc2cc3c(N)nc4cc(-c5cc[nH]n5)ccc4c3[nH]2)co1 [Example 493] | 
13 |  |  |  | 0.98 | 20 to 100 | > 100 | Cc1ccccc1CNCCn1cc2c(n1)c(N)nc1cc(-c3cc[nH]n3)ccc12 [Example 105, 2-(2-{[(2-methylphenyl)methyl]amino}ethyl)-7-(1H-pyrazol-3-yl)-2H-pyrazolo[3,4-c]quinolin-4-amine] | 
14 |  |  |  | 5.34 | > 100 | > 100 | CC(=O)NCCCn1cc2c(n1)c(N)nc1cc(-c3cc[nH]n3)ccc12 [Example 126] | 
15 | 2.58 | > 100 | > 100 |  |  |  | Nc1nc2cc(-c3cc[nH]n3)ccc2c2nn(CCC(=O)N3CC(F)(F)C3)cc12 [Example 503] | 
16 |  |  |  | 0.7 | > 100 | > 100 | Nc1nc2cc(-c3cccs3)ccc2c2cn(CCNC(=O)c3ccc(F)cn3)nc12 [Example 129] | 
17 |  |  |  | 0.39 | > 100 | > 100 | Nc1nc2cc(-c3cc[nH]n3)ccc2c2nn(CC3CC(F)(F)C3)cc12 [Example 335] | 
18 |  |  |  | 1.79 | > 100 | > 100 | Nc1nc2cc(-c3cc[nH]n3)ccc2c2cn(CCNC(=O)c3cnco3)nc12 [Example 84] | 
19 |  |  |  | 0.11 | > 100 | > 100 | Cc1nc(C(=O)NCCn2cc3c(N)nc4cc(-c5cc[nH]n5)ccc4c3n2)co1 [Example 198] | 
20 | 3.05 | > 100 | > 100 |  |  |  | CC(C)NC(=O)C(C)(C)Cn1cc2c(N)nc3cc(-c4ccn[nH]4)ccc3c2n1 [Example 603] | 
21 |  |  |  | 0.4 | > 100 | > 100 | Nc1nc2cc(-c3cc[nH]n3)ccc2c2nn(CC(O)CF)cc12 (single isomer, unassigned) [Example 376] | 

Row | SMILES | EC50 (THP-1 cells; [1]) [µM] | EC50 (TLR7; activity range) [µM] | EC50 (TLR8; activity range) [µM] | EC50 (THP-1 cells; [2]) [µM] | EC50 (TLR7; activity range class) [µM] | EC50 (TLR8; activity range class) [µM] | EC50 (THP-1 cells; THP-1, read-out: NLRP3 hILIB EC50) [µM]
22 | Nc1nc2cc(-c3cc[nH]n3)ccc2c2cn(CCCNC(=O)c3ccccc3)nc12 [Example 123, N-{3-[4-amino-7-(1H-pyrazol-3-yl)-2H-pyrazolo[3,4-c]quinolin-2-yl]propyl}benzamide] |  |  |  |  | > 100 | > 100 | 9.02
